Test results taken from patent US20080275133A1, “Local Administration of Retinoids to Treat Deficiencies in Dark Adaptation” (University Of Calfornia-San Francisco, priority 2004, published 2008).
Like-named read-outs stand apart in the source and are kept apart here. Values belong to the compound of their own block, whether it stands above or below them.

Experiments:
Dark adaptation = conditions: for Night driving ability: one week later
Experimental: A patient complains of difficulty driving at night, especially in going from a well-lit to a poorly-illuminated environment. […] One cc of Vitamin A and/or one of its visual pigment derivatives in a sustained release suspension is injected retrobulbarly on both sides. […] Six months later, the retrobulbar injections are repeated.
A patient complains of difficulty driving at night, especially in going from a well-lit to a poorly-illuminated environment. […] The patient has a cataract in the right eye and cataract surgery with an intraocular lens is performed. At the time of surgery, a small pellet of concentrated vitamin A and/or one of its visual pigment derivatives is placed in the eye for sustained release.

[1] = system: Dark adaptation abnormalities; conditions: Sorsby's fundus dystrophy patients, high dose oral, for as little as 1 week; cited from earlier work
[2] = chronic high dose oral (liver damage, osteoporosis, promotion of lung cancer in smokers); cited from earlier work
[3] = cited from earlier work

- Duration of delivery in effective concentrations to the retina (Dark adaptation; human, in vivo): 0.5-3 years
SMILES: CC1=C(/C=C/C(C)=C/C=C/C(C)=C/CO)C(C)(C)CCC1 [Vitamin A, (2E,4E,6E,8E)-3,7-dimethyl-9-(2,6,-trimethylcyclohex-1-en-1-yl)nona-2,4,6,8-tetraen-1-ol]
- Night driving ability (Dark adaptation; Example 1: patient, one cc sustained release suspension retrobulbarly on both sides): drives without difficulty at night
- Night driving ability (Dark adaptation; Example 2: patient, small sustained release pellet placed in the eye at cataract surgery): drives without difficulty at night
- Dark adaptation abnormalities [1]: rapidly normalize
- Systemic toxicity [2]: associated systemic toxicity

SMILES: CC1=C(/C=C/C(C)=C/C=C/C(C)=C/C=O)C(C)(C)CCC1 [retinal]
- Shielding from oxygen by BCD inclusion complex ([3]; beta cyclodextrin inclusion complex (Lerner et al., 1989)): can shield retinal from oxygen

SMILES: CC1=C(/C=C/C(C)=C/C=C/C(C)=C/C(=O)O)C(C)(C)CCC1 [all-trans-retinoic acid, retinoic acid]
- Photostability with BCD inclusion complex ([3]; beta cyclodextrin inclusion complex formation (Lin et al., 2000)): increase the photostability
